Data reported in US11773081B2, “Pharmaceutical composition for preventing or treating wound, comprising indirubin derivative as active ingredient” (CK Regeon Inc., priority 2018, dated 2023).

Tested on: mouse acute wound
Experiment: Wound healing effect of extract and indirubin derivative mixtures in mouse acute wound (Test Example 6)
Assay type: in vivo
Conditions: mouse acute wound tissue, fluorescence staining
Procedure: Wound healing-promoting effect was investigated after treating an animal model with the indirubin derivative of Example 1 (0.5 mM), the indirubin derivative of Example 2 (0.5 mM) or the mixtures of Examples 12 and 13 (0.5 mM indirubin derivative mixed with 1 μg/mL Euodia sutchuenensis Dode extract).
The hair on the back of 7-week-old C3H mouse that entered the resting period was removed and a 1.5×1.5 cm^2 wound was made on the hair-removed region. A sample was applied to a positive control group, once daily for 12 days. After measuring wound size of the experimental animal on days 0 and 12, the wound tissue was fixed by immersing in 4% paraformaldehyde, embedded in paraffin and then sliced into 4 μm thickness. The sliced tissue was deparaffinized, rehydrated and then the degree of re-epithelialization was compared. Masson's trichrome staining and Picrosirius red staining were conducted for evaluation of the degree of collagen synthesis. For Masson's trichrome staining, a slide was immersed in Weigert's iron hematoxylin solution for 10 minutes and in Biebrich scarlet-acid fuchsin and aniline blue for 5 minutes each. […] The sliced skin tissue was fluorescence-stained using β-catenin, PCNA, keratin 14 and collagen I antibodies and was observed using a fluorescence microscope (FIG. 9a). […]

With COc1ccc2c(c1)/C(=C1/Nc3ccccc3/C1=N\O)C(=O)N2 [Example 1, 5-methoxylindirubin-3′-oxime] the “expression of β-catenin, PCNA, keratin 14 and collagen I” value was “slightly lower as compared to the positive control group”.
